From patent US20250090550A1, “INJECTABLE COMPOSITION COMPRISING CYTOLYTIC COMPOUND IN GEL, GEL-FORMING SOLUTION OR GEL-FORMING SUSPENSION FOR REDUCTION OF FAT” (GLONOVA PHARMA CO., LTD., priority 2022, published 2025)
Structures can show the parent of a compound that is named as a salt.

Legend:
fat tissue = settings: after injection of deoxycholic acid solution; cited from earlier work
[1] = Gel formation of mixtures added to 0.9% saline, placed at 37° C.; assay type: physicochemical
Method: In the following examples, DCA-Na solutions were mixed with other components to prepare an injectable composition. Unless otherwise stated, the requirements for the final concentration of DCA-Na in the obtained compositions were ≥70% of initial solutions (≥36.96 mg/mL for 5% solution, ≥7.39 mg/mL for 1% solution). The appearances after mixing DCA-Na with other components were observed after placing at 25, 37 and 42° C. for 20, 30, 45, 60 and 120 minutes. 200 μL of the mixtures were also added to 200 μL 0.9% saline respectively and their appearances were also observed after placing at 37° C. for 20, 30, 45, 60 and 120 minutes. Photos were taken and showing in the figures.

Row | SMILES | permeation into fat tissue after injection (fat tissue) | suitable concentration of lidocaine HCl mixing with 1% DCA-Na solution ([1]; mixtures of 1% DCA-Na and LA + lidocaine HCl) | tolerable concentration of lidocaine HCl mixing with 5% DCA-Na solution ([1]; mixtures of 5% DCA-Na and LA in lidocaine HCl)
1 | C[C@H](CCC(=O)O)[C@H]1CC[C@H]2[C@@H]3CC[C@@H]4C[C@H](O)CC[C@]4(C)[C@H]3C[C@H](O)[C@]12C [deoxycholic acid, Deoxycholic acid] | more than 1 centimeter |  | 
2 | CCN(CC)CC(=O)Nc1c(C)cccc1C [lidocaine HCl] |  | around 3 mg/mL | up to 6 mg/mL
